Marks after values point to notes of the source that are not given here.
Tests used:
[1] = system: CD56+ natural killer cells; experiment: Viability and effects on CD56+ natural killer cells after 72 hours of exposure; assay type: cell-based
Protocol: (§1) In vitro assays designed to assess the viability and effects of GZ17-6.02, GZ17-6.02.02, its metabolites as single agents, and the metabolites in combination effects of CD8+ T cells and CD56+ natural killer cells after 72 hours of exposure. Test agents used included 6.02 (77% Isovanillin+13% Harmine+10% Curcumin), 6.02.02 (77% Isovanillin+13% Harmine+8.5% Curcumin sulfate tetrabutylammonium salt+1.5% Curcumin β-D-glucuronide), Curcumin metabolites combination (85% Curcumin sulfate tetrabutylammonium salt+15% Curcumin β-D-glucuronide), Curcumin metabolites single agents (single agent Curcumin sulfate tetrabutylammonium salt, or single agent Curcumin 3-D-glucuronide).

CD8+ T cells = experiment: Viability and effects on CD8+ T cells after 72 hours of exposure; assay type: cell-based
Protocol: as §1

H1650 cells (wild type) = experiment: In-cell immunostaining of protein expression and phosphorylation, H1650 wild type cells; assay type: cell-based, human; settings: 1650 WT; 6 h; GZ17-6.02 2 mM final curcumin, osimertinib 100 nM; vehicle 100%
Protocol: (§2) Assessments of protein expression and protein phosphorylation. Multi-channel fluorescence HCS microscopes perform true in-cell western blotting. Three independent cultures derived from three thawed vials of cells of a tumor were sub-cultured into individual 96-well plates. Twenty-four hours after plating, the cells are transfected with a control plasmid or a control siRNA, or with an empty vector plasmid or with plasmids to express various proteins. After another 24 hours, the cells are ready for drug exposure(s). At various time-points after the initiation of drug exposure, cells are fixed in place using paraformaldehyde and using Triton X100 for permeabilization. Standard immunofluorescent blocking procedures are employed, followed by incubation of different wells with a variety of validated primary antibodies and subsequently validated fluorescent-tagged secondary antibodies are added to each well. The microscope determines the background fluorescence in the well and in parallel randomly determines the mean fluorescent intensity of 100 cells per well.

[2] = system: afatinib-resistant (AR) H1975 cells; experiment: In-cell immunostaining of protein expression and phosphorylation, afatinib-resistant H1975 cells; assay type: cell-based, human; settings: 1975 AR; 6 h; GZ17-6.02 2 mM final curcumin, osimertinib 100 nM; vehicle 100%
Protocol: (§3) […] Cells were fixed in place 6 hours after treatment and immunostaining of single cells performed to determine the levels of each protein/phosphor-protein (n=3+/−SD). * p<0.05 less than vehicle control; # p<0.05 greater than vehicle control.
Generation of erlotinib, afatinib and osimertinib-resistant cells. Cells were incubated in vitro with increasing concentrations of vehicle control or erlotinib or osimertinib until after ˜6 weeks the HCC827 and H1975 and H1650 cells grew with similar kinetics to sensitive cells in either erlotinib ([…]) or osimertinib ([…]), respectively. Afatinib-resistant cells were created in vivo by repeated high dosing until tumors disappeared and then regrew, as previously described.
as §2

[3] = system: H1975 cells (wild type sensitive); experiment: In-cell immunostaining of protein expression and phosphorylation, H1975 wild type cells; assay type: cell-based, human; settings: 1975 WT; 6 h; GZ17-6.02 2 mM final curcumin, osimertinib 100 nM; vehicle 100%
Protocol: as §3, §2

## COc1cc(/C=C/C(=O)CC(=O)/C=C/c2ccc(O[C@@H]3O[C@H](C(=O)O)[C@@H](O)[C@H](O)[C@H]3O)c(OC)c2)ccc1O [Curcumin B-D-Glucuronide, Curcumin β-D-glucuronide]
[1]; 0.03 μM
  CD56 + NK Cells % of control: 98.08 % of control
[1]; 0.3 μM
  CD56 + NK Cells % of control: 100.22 % of control
[1]; 3 μM
  CD56 + NK Cells % of control: 93.81 % of control
[1]; 30 μM
  CD56 + NK Cells % of control: 95.28 % of control
CD8+ T cells; 0.03 μM
  CD8 + T Cells % of control: 124.35 % of control
CD8+ T cells; 0.3 μM
  CD8 + T Cells % of control: 114.54 % of control
CD8+ T cells; 3 μM
  CD8 + T Cells % of control: 118.58 % of control
CD8+ T cells; 30 μM
  CD8 + T Cells % of control: 110.23 % of control

## C=CC(=O)Nc1cc(Nc2nccc(-c3cn(C)c4ccccc34)n2)c(OC)cc1N(C)CCN(C)C [OSI]
H1650 cells (wild type)
  ATG5: 106%
  Beclin1: 103%
  CD95: 100%
  CHOP: 106%
  ERBB1: 98%
  ERBB2: 94%
  ERBB3: 100%
  ERBB4: 100%
  ERK2: 100%
  FAS-L: 104%
  FLIP-s: 102%
  GRP78: 111%
  HDAC1: 99%
  HDAC2: 98%
  HDAC3: 98%
  HDAC4: 101%
  HDAC5: 99%
  HDAC6: 98%
  HDAC7: 99%
  HDAC8: 101%
  HDAC9: 100%
  HDAC10: 98%
  HDAC11: 100%
  IDO1: 100%
  JNK1/2: 104%
  MHCA: 103%
  NOXA: 101%
  ODC: 104%
  P-AKT T308: 90%
  P-AMPKα T172: 98%
  P-ATG13 S318: 115# %
  P-ATM S1980: 98%
  P-B1: 61* %
  P-B2: 97%
  P-B3: 96%
  P-B4: 96%
  P-ERK1/2: 82* %
  P-JAK2: 86* %
  P-JNK1/2: 91%
  P-MEK1/2: 97%
  P-NFκB S536: 83* %
  P-PDGFRβ: 93%
  P-PERK T980: 104%
  P-SRC Y416: 83* %
  P-SRC Y527: 105%
  P-STAT3 Y705: 95%
  P-STAT5 Y694: 98%
  P-TAZ S89: 101%
  P-ULK1 S317: 107%
  P-ULK1 S757: 81* %
  P-YAP S127: 102%
  P-c-KIT: 92%
  P-c-MET: 94%
  P-eIF2α S51: 114%
  P-mTOR S2448: 96%
  P-mTOR S2481: 87* %
  P-β-catenin: 102%
  PD-L1: 97%
  PD-L2: 97%
  PDGFRβ: 106%
  PP1: 103%
  PUMA: 100%
  TAZ: 101%
  Total ERK2: 100%
  YAP: 98%
  c-KIT: 100%
  c-MET: 98%
  p70 S6K T389: 99%
  β-catenin: 101%
[2]
  ATG5: 105%
  Beclin1: 109%
  CHOP: 102%
  ERBB1: 100%
  ERBB2: 102%
  ERBB3: 101%
  ERBB4: 98%
  FLIP-s: 79* %
  GRP78: 103# %
  NOXA: 100%
  P-AKT T308: 86* %
  P-AMPKα T172: 102%
  P-ATG13 S318: 121# %
  P-ATM S1980: 101%
  P-B1: 76* %
  P-B2: 101%
  P-B3: 100%
  P-B4: 97%
  P-MEK1/2: 82* %
  P-PERK T980: 111%
  P-STAT3 Y705: 92%
  P-STAT5 Y694: 95%
  P-ULK1 S317: 99%
  P-ULK1 S757: 65* %
  P-eIF2α S51: 105%
  P-mTOR S2448: 66* %
  P-mTOR S2481: 71* %
  PP1: 112%
  PUMA: 98%
  Total ERK2: 100%
  p70 S6K T389: 99%
[3]
  ATG5: 111%
  Beclin1: 113# %
  CD95: 102%
  CHOP: 109%
  ERBB1: 99%
  ERBB2: 100%
  ERBB3: 101%
  ERBB4: 99%
  ERK2: 99%
  FAS-L: 101%
  FLIP-s: 85* %
  GRP78: 119# %
  HDAC1: 97%
  HDAC2: 99%
  HDAC3: 96%
  HDAC4: 93%
  HDAC5: 100%
  HDAC6: 105%
  HDAC7: 103%
  HDAC8: 99%
  HDAC9: 98%
  HDAC10: 99%
  HDAC11: 96%
  IDO1: 99%
  JNK1/2: 101%
  MHCA: 96%
  NOXA: 100%
  ODC: 100%
  P-AKT T308: 81* %
  P-AMPKα T172: 101%
  P-ATG13 S318: 126# %
  P-ATM S1980: 100%
  P-B1: 73* %
  P-B2: 101%
  P-B3: 100%
  P-B4: 102%
  P-ERK1/2: 70* %
  P-JAK2: 83* %
  P-JNK1/2: 89%
  P-MEK1/2: 83* %
  P-NFκB S536: 100%
  P-PDGFRβ: 89%
  P-PERK T980: 109%
  P-SRC Y416: 95%
  P-SRC Y527: 102%
  P-STAT3 Y705: 92%
  P-STAT5 Y694: 88%
  P-TAZ S89: 114# %
  P-ULK1 S317: 105%
  P-ULK1 S757: 63* %
  P-YAP S127: 113# %
  P-c-KIT: 99%
  P-c-MET: 92%
  P-eIF2α S51: 109%
  P-mTOR S2448: 68* %
  P-mTOR S2481: 68* %
  P-β-catenin: 111%
  PD-L1: 99%
  PD-L2: 97%
  PDGFRβ: 100%
  PP1: 104%
  PUMA: 99%
  TAZ: 100%
  Total ERK2: 99%
  YAP: 99%
  c-KIT: 98%
  c-MET: 101%
  p70 S6K T389: 92%
  β-catenin: 98%

— US20220008359A1, “COMBINATION ANTI-CANCER PRODUCTS AND METHODS” (priority 2020, published 2022)
